Source: US20240140957A1, “BRIDGED COMPOUNDS AS KRAS G12D INHIBITOR AND DEGRADER AND THE USE THEREOF” (BeiGene Switzerland GmbH, priority 2021, published 2024)

Biological target: GDP-loaded KRAS G12D (Homo sapiens, UniProt P01116, G12D)
Test: KRAS G12D Probe Displacement Assay
Format: binding
Conditions: KRAS G12D 0.5 nM, biotinylated probe 2 4 nM; Table 6 letters; read-out: KRAS G12D Probe Displacement Assay IC50 (class)

Chain of GDP-loaded KRAS G12D (P01116 1-188 isoform P01116-2 G12D): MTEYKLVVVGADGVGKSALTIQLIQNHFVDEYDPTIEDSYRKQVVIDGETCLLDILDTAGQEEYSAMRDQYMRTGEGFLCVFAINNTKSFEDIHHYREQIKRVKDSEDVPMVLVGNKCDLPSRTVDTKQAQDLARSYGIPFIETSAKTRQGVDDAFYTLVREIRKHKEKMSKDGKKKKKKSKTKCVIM

Row | SMILES | IC50
1 | CN1C[C@H](F)C[C@]1(C)COc1nc(N2CC3CCC(C2)N3)c2cc(C(F)(F)F)c(-c3ccc(F)c4sc(N)nc34)c(F)c2n1 [Example E103, 4-(4-(3,8-diazabicyclo[3.2.1]octan-3-yl)-8-fluoro-2-(((2R,4R)-4-fluoro-1,2-dimethylpyrrolidin-2-yl)methoxy)-6-(trifluoromethyl)quinazolin-7-yl)-7-fluorobenzo [d]thiazol-2-amine] | < 0.05 µM
2 | COC1CC(Oc2nc(N3CC4CCC(C3)N4)c3cc(C(F)(F)F)c(-c4ccc(F)c5sc(N)nc45)c(F)c3n2)C1 (stereo not drawn) [Example E167, 4-(4-(3,8-diazabicyclo[3.2.1]octan-3-yl)-8-fluoro-2-(3-methoxycyclobutoxy)-6-(trifluoromethyl)quinazolin-7-yl)-7-fluorobenzo[d]thiazol-2-amine] | 0.05 to 0.1 µM
3 | Nc1nc2c(-c3c(C(F)(F)F)cc4c(N5CC6CCC(C5)N6)nc(OCC56COC(C5)C6)nc4c3F)ccc(F)c2s1 [Example E152, 4-(2-((2-oxabicyclo[2.1.1]hexan-4-yl)methoxy)-4-(3,8-diazabicyclo[3.2.1]octan-3-yl)-8-fluoro-6-(trifluoromethyl)quinazolin-7-yl)-7-fluorobenzo[d] thiazol-2-amine] | < 0.05 µM
4 | Cc1cc(N)nc(-c2c(Cl)cc3c(N4CC5CCC(C4)N5)nc(OCC4CS(=O)(=O)C4)nc3c2F)c1C(F)(F)F [Example E228, 3-(((7-(6-amino-4-methyl-3-(trifluoromethyl)pyridin-2-yl)-4-(3,8-diazabicyclo[3.2.1]octan-3-yl)-6-chloro-8-fluoroquinazolin-2-yl)oxy)methyl)thietane 1,1-dioxide] | < 0.05 µM
5 | Cc1nc(N)nc(-c2c(Cl)cc3c(N4CC5CCC(C4)N5)nc(OC[C@@]45CCCN4C[C@H](F)C5)nc3c2F)c1C(F)(F)F [Example E112, 4-(4-(3,8-diazabicyclo[3.2.1]octan-3-yl)-6-chloro-8-fluoro-2-(((2R,7aS)-2-fluorotetrahydro-1H-pyrrolizin-7a(5H)-yl)methoxy)quinazolin-7-yl)-6-methyl-5-(trifluoromethyl)pyrimidin-2-amine] | < 0.05 µM
6 | Nc1nc2c(-c3c(C(F)(F)F)cc4c(N5C6CNCC5COC6)nc(OC[C@@]56CCCN5C[C@H](F)C6)nc4c3F)ccc(F)c2s1 [Example E98] | < 0.05 µM
7 | Nc1nc2c(-c3c(C(F)(F)F)cc4c(N5CC6CCC(C5)N6)nc(OCC5(CO)CC5)nc4c3F)ccc(F)c2s1 [Example E149, (1-(((7-(2-amino-7-fluorobenzo[d]thiazol-4-yl)-4-(3,8-diazabicyclo[3.2.1]octan-3-yl)-8-fluoro-6-(trifluoromethyl)quinazolin-2-yl)oxy)methyl)cyclopropyl) methanol] | < 0.05 µM
8 | Nc1nc2c(-c3c(C(F)(F)F)cc4c(N5CC6CCC(C5)N6)nc(OCC5COCC5O)nc4c3F)ccc(F)c2s1 (stereo not drawn) [Example E209, 4-(((7-(2-amino-7-fluorobenzo[d]thiazol-4-yl)-4-(3,8-diazabicyclo [3.2.1]octan-3-yl)-8-fluoro-6-(trifluoromethyl)quinazolin-2-yl)oxy)methyl)tetrahydrofuran-3-ol] | < 0.05 µM
9 | COCC1CC2(COc3nc(N4CC5CCC(C4)N5)c4cc(C(F)(F)F)c(-c5ccc(F)c6sc(N)nc56)c(F)c4n3)CC(F)CN12 (stereo not drawn) [Example E134, 4-(4-(3,8-diazabicyclo[3.2.1]octan-3-yl)-8-fluoro-2-((3-fluoro-7-(methoxymethyl)-1-azabicyclo[3.2.0]heptan-5-yl)methoxy)-6-(trifluoromethyl)quinazolin-7-yl)-7-fluorobenzo[d]thiazol-2-amine] | < 0.05 µM
10 | Nc1nc2c(-c3c(C(F)(F)F)cc4c(N5CC6CCC(C5)N6)nc(OCC5(CO)CCCCC5)nc4c3F)ccc(F)c2s1 [Example E191, (1-(((7-(2-amino-7-fluorobenzo[d]thiazol-4-yl)-4-(3,8-diazabicyclo[3.2.1]octan-3-yl)-8-fluoro-6-(trifluoromethyl)quinazolin-2-yl)oxy)methyl)cyclohexyl) methanol] | < 0.05 µM
11 | C#Cc1cc(N)nc(-c2c(Cl)cc3c(N4CC5CCC(C4)N5)nc(OC[C@@]45CCCN4C[C@H](F)C5)nc3c2F)c1C(F)(F)F [Example E108, 6-(4-(3,8-diazabicyclo[3.2.1]octan-3-yl)-6-chloro-8-fluoro-2-(((2R,7aS)-2-fluorotetrahydro-1H-pyrrolizin-7a(5H)-yl)methoxy)quinazolin-7-yl)-4-ethynyl-5-(trifluoromethyl)pyridin-2-aminp] | < 0.05 µM
12 | CS(=O)(=O)N1CC(COc2nc(N3CC4CCC(C3)N4)c3cc(C(F)(F)F)c(-c4ccc(F)c5sc(N)nc45)c(F)c3n2)C1 [Example E175, 4-(4-(3,8-diazabicyclo[3.2.1]octan-3-yl)-8-fluoro-2-((1-(methylsulfonyl)azetidin-3-yl)methoxy)-6-(trifluoromethyl)quinazolin-7-yl)-7-fluorobenzo[d]thiazol-2-amine] | < 0.05 µM
13 | CC(=O)N1CCC(COc2nc(N3CC4CCC(C3)N4)c3cc(Cl)c(-c4nc(N)cc(C)c4C(F)(F)F)c(F)c3n2)C1 (stereo not drawn) [Example E232, 1-(3-(((7-(6-amino-4-methyl-3-(trifluoromethyl)pyridin-2-yl)-4-(3,8-diazabicyclo[3.2.1]octan-3-yl)-6-chloro-8-fluoroquinazolin-2-yl)oxy)methyl)pyrrolidin-1-yl)ethan-1-one] | < 0.05 µM
14 | Cc1cc(N)nc(-c2c(Cl)cc3c(N4CC5CCC(C4)N5)nc(OCC4(CO)CCCC4)nc3c2F)c1C(F)(F)F [Example E198, (1-(((7-(6-amino-4-methyl-3-(trifluoromethyl)pyridin-2-yl)-4-(3,8-diazabicyclo[3.2.1]octan-3-yl)-6-chloro-8-fluoroquinazolin-2-yl)oxy)methyl)cyclopentyl) methanol] | 0.05 to 0.1 µM
15 | CN1CCCC(C#N)(COc2nc(N3CC4CCC(C3)N4)c3cc(Cl)c(-c4ccc(F)c5sc(N)nc45)c(F)c3n2)C1 (stereo not drawn) [Example E178, 3-(((7-(2-amino-7-fluorobenzo[d]thiazol-4-yl)-4-(3,8-diazabicyclo [3.2.1]octan-3-yl)-6-chloro-8-fluoroquinazolin-2-yl)oxy)methyl)-1-methylpiperidine-3-carbonitrile] | < 0.05 µM
16 | Cc1cc(N)nc(-c2c(Cl)cc3c(N4CC5CCC(C4)N5)nc(OCC4(C)CCCOC4)nc3c2F)c1C(F)(F)F (stereo not drawn) [Example E201, 6-(4-(3,8-diazabicyclo[3.2.1]octan-3-yl)-6-chloro-8-fluoro-2-((3-methyltetrahydro-2H-pyran-3-yl)methoxy)quinazolin-7-yl)-4-methyl-5-(trifluoromethyl)pyridin-2-amine] | 0.1 to 1 µM
17 | N#Cc1c(N)sc2c(F)ccc(-c3c(Cl)cc4c(N5CC6CCC(C5)N6)nc(OC[C@@]56CCCN5C[C@H](F)C6)nc4c3F)c12 [Example E106, 4-(4-(3,8-diazabicyclo[3.2.1]octan-3-yl)-6-chloro-8-fluoro-2-(((2R,7aS)-2-fluorotetrahydro-1H-pyrrolizin-7a(5H)-yl)methoxy)quinazolin-7-yl)-2-amino-7-fluorobenzo[b]thiophene-3-carbonitrile] | < 0.05 µM
18 | CC(=O)N1CCCC(COc2nc(N3CC4CCC(C3)N4)c3cc(C(F)(F)F)c(-c4ccc(F)c5sc(N)nc45)c(F)c3n2)C1 (stereo not drawn) [Example E223, 1-(3-(((7-(2-amino-7-fluorobenzo[d]thiazol-4-yl)-4-(3,8-diazabicyclo[3.2.1]octan-3-yl)-8-fluoro-6-(trifluoromethyl)quinazolin-2-yl)oxy)methyl)piperidin-1-yl)ethan-1-one] | < 0.05 µM
19 | Nc1nc2c(-c3c(C4CC4(F)F)cc4c(N5CC6CCC(C5)N6)nc(OC[C@@]56CCCN5C[C@H](F)C6)nc4c3F)ccc(F)c2s1 (stereo partly drawn) [Example E91, 4-(4-(3,8-diazabicyclo[3.2.1]octan-3-yl)-6-(2,2-difluorocyclopropyl)-8-fluoro-2-((2-fluorotetrahydro-1H-pyrrolizin-7a(5H)-yl)methoxy)quinazolin-7-yl)-7-fluorobenzo[d]thiazol-2-amine] | < 0.05 µM
20 | Nc1nc2c(-c3c(C(F)(F)F)cc4c(N5[C@@H]6CC[C@H]5C(NCCC(F)F)C6)nc(OC[C@@]56CCCN5C[C@H](F)C6)nc4c3F)ccc(F)c2s1 (stereo partly drawn) [Example E95, 4-(4-((1S,4R)-2-((3,3-difluoropropyl)amino)-7-azabicyclo [2.2.1]heptan-7-yl)-8-fluoro-2-(((2R,7As)-2-fluorotetrahydro-1H-pyrrolizin-7a(5H)-yl)methoxy)-6-(trifluoromethyl)quinazolin-7-yl)-7-fluorobenzo[d]thiazol-2-amine] | < 0.05 µM
21 | Nc1nc2c(-c3c(C(F)(F)F)cc4c(N5CC6CCC(C5)N6)nc(OCC5CC6CCC(C5)O6)nc4c3F)ccc(F)c2s1 (stereo not drawn) [Example E163, 4-(2-((8-oxabicyclo[3.2.1]octan-3-yl)methoxy)-4-(3,8-diazabicyclo[3.2.1]octan-3-yl)-8-fluoro-6-(trifluoromethyl)quinazolin-7-yl)-7-fluorobenzo[d]thiazol-2-amine] | < 0.05 µM
